From patent US20240110915A1, “METHODS, PRODUCTS AND SYSTEMS FOR PROGNOSIS OF SUBJECTS SUFFERING FROM MULTIPLE MYELOMA” (University of South Australia, priority 2020, published 2024)
One block for each compound: values may come before it.

Tests used:
DSG2 = DSG2 protein knockdown in KMS-11 cells by Western blot; format: cell-based, human; conditions: stable shRNA expression
Excerpt: Lentiviral vectors (pGIPZ) expressing DSG2-shRNA and non-silencing control-shRNA were obtained from Open Biosystem (Dharmacon). The following shRNA sequences were cloned into the pGIPZ expression plasmid: 5′-TGGATGTCAATGACAATAT-3′ (DSG2-shRNA60) (SEQ ID NO. 2); 5′-CCAGTGTTCTACCTAAATA-3′ (DSG2-shRNA62) (SEQ ID NO. 3); and
5′-[…]-3′ (non-silencing shRNA) (SEQ ID NO. 4). Replication incompetent lentiviral particles were generated by transiently co-transfecting HEK293T cells with ViraPower Lentiviral Support Kit (Invitrogen) and pGIPZ-shRNA vectors using Lipofectamine 2000 (Invitrogen). […]
KMS-11 cells cultured on 100 mm Petri dishes were washed twice with ice-cold PBS and solubilized in RIPA lysis buffer (150 mM NaCl, 50 mM Tris-HCl, pH 7.5, 1% Triton X-100, 1% deoxycholate, 0.1% SDS, and 2 mM EDTA) containing both protease (cOmplete™, Roche) and phosphatase inhibitors (PhosStop™, Roche) for 10 min on ice. The lysates were clarified by centrifugation at 13,000×g for 10 min at 4° C., and protein concentrations determined using the bicinchoninic acid protein assay kit (Pierce). […] After washing, immunoreactivity was detected by using the Odyssey infrared imager (Li-COR). […] Band intensities were quantitated by densitometry using the software associated with the Odyssey infrared imager (Li-COR).

[1] = tested on: KMS-11 human multiple myeloma cells; assay: Cell viability by AnnexinV staining, flow cytometric analysis; format: cell-based; conditions: overnight exposure, 4 nM
Excerpt: (§1) Lentiviral vectors (pGIPZ) expressing DSG2-shRNA and non-silencing control-shRNA were obtained from Open Biosystem (Dharmacon) and cloned into the pGIPZ expression plasmid: 5′-TGGATGTCAATGACAATAT-3′ (SEQ ID NO: 2; DSG2-shRNA60); 5′-CCAGTGTTCTACCTAAATA-3′ (SEQ ID NO:3; DSG2-shRNA62); and 5′-[…]-3′ (SEQ ID NO: 4; non-silencing shRNA). Replication incompetent lentiviral particles were generated by transiently co-transfecting HEK293T cells with ViraPower Lentiviral Support Kit (Invitrogen) and pGIPZ-shRNA vectors using Lipofectamine 2000 (Invitrogen). Lentiviral supernatant was harvested 72 hours post-transfection and used to transduce 1×10^5 KMS-11 cells that were seeded in a 6-well plate, in the presence of 4 μg/mL polybrene. Puromycin (1 μg/mL) was continually added to maintain culture of cells with the transduced vectors and DSG2 expression was routinely checked using flow cytometry and western blot. Cell without and with DSG2 KD were cultured with increasing concentrations of Bortezomib (2-4 nM, (Janssen Cilag, New Brunswick NJ)) and after 12 hours the cell viability was determined using AnnexinV staining using flow cytometric analysis.

[2] = tested on: KMS-11 cells with stable knockdown of DSG2 (DSG2 shRNA); assay: Cell viability by AnnexinV staining, cells with stable DSG2 knockdown; format: cell-based, human; conditions: over 12 hours at 2 nM and 4 nM; compared with cells without knockdown
Excerpt: as §1

[3] = target: human desmoglein 2 (DSG2) (human) (UniProt Q14126); assay: cell-based or functional assay

Compound: 5′-TGGATGTCAATGACAATAT-3′ [DSG2-shRNA60]
knockdown of DSG2 protein (DSG2): Efficient knockdown

Compound: 5′-CCAGTGTTCTACCTAAATA-3′ [DSG2-shRNA62]
knockdown of DSG2 protein (DSG2): Efficient knockdown

Compound: CC(C)C[C@H](NC(=O)[C@H](Cc1ccccc1)NC(=O)c1cnccn1)B(O)O [Bortezomib]
viability of KMS-11 human multiple myeloma cells [1]: reduced
sensitivity to Bortezomib (cell viability) of KMS-11 cells with stable DSG2 knockdown [2]: even further increased sensitivity

reduction in adhesion of KMS-11 cells with DSG2 knockdown (shRNA construct A) to a BMEC-DSG2 monolayer, compared to the NT control cell line [3]: 28.1%
reduction in adhesion of KMS-11 cells with DSG2 knockdown (shRNA construct C) to a BMEC-DSG2 monolayer, compared to the NT control cell line [3]: 35.6%
Compound: human desmoglein 2 (DSG2) (from UniProt Q14126 50-1118)
